# In PubChem BioAssay (NCI):
#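 All cell lines were grown in 96-well plates and treated with compound for 48 hours. The concentration for 50% growth inhibition is given as GI50. Definition used: TGI = concentration required for complete inhibition of growth.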
# Key:
# Test in all cases: DTP human tumour cell line panel, 48 h
# 786-0 renal = system: 786-0 renal
# A498 renal = system: A498 renal
# A549 NSCLC = system: A549 NSCLC
# CAKI-1 renal = system: CAKI-1 renal
# CCRF-CEM leukemia = system: CCRF-CEM leukemia
# COLO 205 colon = system: COLO 205 colon
# DU-145 prostate = system: DU-145 prostate
# HCC-2998 colon = system: HCC-2998 colon
# HOP-62 NSCLC = system: HOP-62 NSCLC
# HOP-92 NSCLC = system: HOP-92 NSCLC
# HS 578T breast = system: HS 578T breast
# HT29 colon = system: HT29 colon
# K-562 leukemia = system: K-562 leukemia
# KM12 colon = system: KM12 colon
# LOX IMVI melanoma = system: LOX IMVI melanoma
# M14 melanoma = system: M14 melanoma
# MCF7 breast = system: MCF7 breast
# MDA-MB-231 breast = system: MDA-MB-231 breast
# MDA-MB-435 = system: MDA-MB-435
# MOLT-4 leukemia = system: MOLT-4 leukemia
# NCI-H226 lung = system: NCI-H226 lung
# NCI-H23 lung = system: NCI-H23 lung
# NCI-H460 lung = system: NCI-H460 lung
# NCI/ADR-RES ovarian = system: NCI/ADR-RES ovarian
# OVCAR-3 ovarian = system: OVCAR-3 ovarian
# OVCAR-4 ovarian = system: OVCAR-4 ovarian
# OVCAR-5 ovarian = system: OVCAR-5 ovarian
# OVCAR-8 ovarian = system: OVCAR-8 ovarian
# PC-3 prostate = system: PC-3 prostate
# RPMI-8226 leukemia = system: RPMI-8226 leukemia
# RXF 393 renal = system: RXF 393 renal
# SF-268 CNS = system: SF-268 CNS
# SF-295 CNS = system: SF-295 CNS
# SF-539 CNS = system: SF-539 CNS
# SK-MEL-2 melanoma = system: SK-MEL-2 melanoma
# SK-MEL-5 melanoma = system: SK-MEL-5 melanoma
# SK-OV-3 ovarian = system: SK-OV-3 ovarian
# SN12C renal = system: SN12C renal
# SNB-19 CNS = system: SNB-19 CNS
# SNB-75 CNS = system: SNB-75 CNS
# SR leukemia = system: SR leukemia
# SW-620 colon = system: SW-620 colon
# T-47D breast = system: T-47D breast
# TK-10 renal = system: TK-10 renal
# U251 CNS = system: U251 CNS
# UACC-257 melanoma = system: UACC-257 melanoma
# UACC-62 melanoma = system: UACC-62 melanoma
structure (smiles),measurement,setting,value
COC(=O)c1ccc(NC2=C(Cl)C(=O)C(C)=C(C)C2=O)cc1,GI50,786-0 renal,15.1 µM
same,TGI,786-0 renal,> 100 µM
same,GI50,A498 renal,2.06 µM
same,TGI,A498 renal,96.7 µM
same,GI50,A549 NSCLC,5.25 µM
same,TGI,A549 NSCLC,> 100 µM
same,GI50,CAKI-1 renal,2.95 µM
same,TGI,CAKI-1 renal,> 100 µM
same,GI50,CCRF-CEM leukemia,1.08 µM
same,TGI,CCRF-CEM leukemia,4.98 µM
same,GI50,COLO 205 colon,7.69 µM
same,TGI,COLO 205 colon,> 100 µM
same,GI50,DU-145 prostate,11.2 µM
same,TGI,DU-145 prostate,> 100 µM
same,GI50,HCC-2998 colon,3.84 µM
same,TGI,HCC-2998 colon,> 100 µM
same,GI50,HOP-62 NSCLC,5.52 µM
same,TGI,HOP-62 NSCLC,> 100 µM
same,GI50,HOP-92 NSCLC,1.46 µM
same,TGI,HOP-92 NSCLC,3.11 µM
same,GI50,HS 578T breast,4 µM
same,TGI,HS 578T breast,93.8 µM
same,GI50,HT29 colon,6.64 µM
same,TGI,HT29 colon,> 100 µM
same,GI50,K-562 leukemia,1.58 µM
same,TGI,K-562 leukemia,5.31 µM
same,GI50,KM12 colon,2.06 µM
same,TGI,KM12 colon,4.64 µM
same,GI50,LOX IMVI melanoma,1.81 µM
same,TGI,LOX IMVI melanoma,3.41 µM
same,GI50,M14 melanoma,2.84 µM
same,TGI,M14 melanoma,40.5 µM
same,GI50,MCF7 breast,2.66 µM
same,TGI,MCF7 breast,> 100 µM
same,GI50,MDA-MB-231 breast,2.68 µM
same,TGI,MDA-MB-231 breast,7.71 µM
same,GI50,MDA-MB-435,1.84 µM
same,TGI,MDA-MB-435,8.73 µM
same,GI50,MOLT-4 leukemia,1.43 µM
same,TGI,MOLT-4 leukemia,5.13 µM
same,GI50,NCI-H226 lung,5.82 µM
same,TGI,NCI-H226 lung,> 100 µM
same,GI50,NCI-H23 lung,3.77 µM
same,TGI,NCI-H23 lung,> 100 µM
same,GI50,NCI-H460 lung,4.7 µM
same,TGI,NCI-H460 lung,> 100 µM
same,GI50,NCI/ADR-RES ovarian,2.65 µM
same,TGI,NCI/ADR-RES ovarian,10.9 µM
same,GI50,OVCAR-3 ovarian,1.81 µM
same,TGI,OVCAR-3 ovarian,3.3 µM
same,GI50,OVCAR-4 ovarian,1.73 µM
same,TGI,OVCAR-4 ovarian,3.14 µM
same,GI50,OVCAR-5 ovarian,6.08 µM
same,TGI,OVCAR-5 ovarian,> 100 µM
same,GI50,OVCAR-8 ovarian,6.89 µM
same,TGI,OVCAR-8 ovarian,> 100 µM
same,GI50,PC-3 prostate,2.63 µM
same,TGI,PC-3 prostate,> 100 µM
same,GI50,RPMI-8226 leukemia,2.19 µM
same,TGI,RPMI-8226 leukemia,5.29 µM
same,GI50,RXF 393 renal,1.75 µM
same,TGI,RXF 393 renal,4.25 µM
same,GI50,SF-268 CNS,3.79 µM
same,TGI,SF-268 CNS,> 100 µM
same,GI50,SF-295 CNS,2.18 µM
same,TGI,SF-295 CNS,6.64 µM
same,GI50,SF-539 CNS,2.33 µM
same,TGI,SF-539 CNS,5.91 µM
same,GI50,SK-MEL-2 melanoma,3.2 µM
same,TGI,SK-MEL-2 melanoma,> 100 µM
same,GI50,SK-MEL-5 melanoma,1.92 µM
same,TGI,SK-MEL-5 melanoma,4.08 µM
same,GI50,SK-OV-3 ovarian,5.13 µM
same,TGI,SK-OV-3 ovarian,> 100 µM
same,GI50,SN12C renal,9.11 µM
same,TGI,SN12C renal,> 100 µM
same,GI50,SNB-19 CNS,3.32 µM
same,TGI,SNB-19 CNS,> 100 µM
same,GI50,SNB-75 CNS,1.6 µM
same,TGI,SNB-75 CNS,7.31 µM
same,GI50,SR leukemia,1.22 µM
same,TGI,SR leukemia,4.02 µM
same,GI50,SW-620 colon,2.1 µM
same,TGI,SW-620 colon,4.42 µM
same,GI50,T-47D breast,1.74 µM
same,TGI,T-47D breast,4.72 µM
same,GI50,TK-10 renal,> 100 µM
same,TGI,TK-10 renal,> 100 µM
same,GI50,U251 CNS,3.77 µM
same,TGI,U251 CNS,> 100 µM
same,GI50,UACC-257 melanoma,3.07 µM
same,TGI,UACC-257 melanoma,> 100 µM
same,GI50,UACC-62 melanoma,1.77 µM
same,TGI,UACC-62 melanoma,5.53 µM
